From patent US7265111B2, “Adenosine analogues and their use as pharmaceutical agents” (Sanofi-Aventis Deutschland GmbH, priority 2002, dated 2007)

Legend:
Adenosine A1 receptor = molecular target: T1, Adenosine A1 receptor (Homo sapiens, UniProt P30542); assay: FLIPR intracellular Ca2+ functional assay, recombinant CHO cells (A1/Gα6qi4myr); type: cell-based; conditions: read-out: EC50 values (agonist activity at adenosine receptors) A1
T1 construct: expressed in transfected cells; host or cells: CHO (Chinese hamster ovary) cells, stably double-transfected
T1 sequence (P30542 1-326): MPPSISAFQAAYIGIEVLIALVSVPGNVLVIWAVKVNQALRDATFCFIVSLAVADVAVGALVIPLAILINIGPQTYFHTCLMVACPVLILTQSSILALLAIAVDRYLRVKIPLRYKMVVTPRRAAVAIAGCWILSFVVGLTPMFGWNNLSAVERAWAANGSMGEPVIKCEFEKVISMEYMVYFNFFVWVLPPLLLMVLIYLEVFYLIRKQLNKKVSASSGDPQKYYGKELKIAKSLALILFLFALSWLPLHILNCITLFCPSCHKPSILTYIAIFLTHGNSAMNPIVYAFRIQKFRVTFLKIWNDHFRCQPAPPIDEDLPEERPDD
Description: (§1) In Vitro Functional Assays with Recombinant Cell Lines:
(§2) Functional assays were performed by detection of agonist-induced changes in the intracellular concentration of Ca^2+ in recombinant cell lines expressing adenosine receptor subtypes using the FLIPR™ (fluorescence imaging plate reader, Molecular Devices) technology. To allow optimal signalling through Ca^2+, chinese hamster ovary (CHO) cells were stably double-transfected with cDNAs to achieve expression of suitable combinations of adenosine receptor subtypes (A1, A2a, A2b or A3) with either G-protein Gα16 or hybrid protein Gα6qi4myr (German Patent Application no. 100333532.2). Optimal signals were achieved using combinations as follows:
(§3) For assays, recombinant cells were seeded in 96-well dishes (50000 cells/well) and grown overnight. Medium was then removed and cells incubated for 1 hour in buffer containing the dye Fluo-4. After incubation with dye, cells were washed, test compound added and changes in intracellular Ca^2+ concentration measured by FLIPR. Measured values were expressed as % change relative to controls (0%: no test compound added; 100%: 1 μM Adenosine added) and used for calculation of dose-response curves and subsequent determination of EC50 values.

Adenosine A2a receptor = molecular target: T2, Adenosine A2a receptor (Homo sapiens, UniProt P29274); assay: FLIPR intracellular Ca2+ functional assay, recombinant CHO cells (A2a/Gα16); type: cell-based
T2 construct: expressed in transfected cells; host or cells: CHO (Chinese hamster ovary) cells, stably double-transfected
Description: as §1, §2, §3

Adenosine A3 receptor = molecular target: T3, Adenosine A3 receptor (Homo sapiens, UniProt P0DMS8); assay: FLIPR intracellular Ca2+ functional assay, recombinant CHO cells (A3/Gα6qi4myr); type: cell-based; conditions: read-out: EC50 values (agonist activity at adenosine receptors) A3
T3 construct: expressed in transfected cells; host or cells: CHO (Chinese hamster ovary) cells, stably double-transfected
T3 sequence (P0DMS8 1-318): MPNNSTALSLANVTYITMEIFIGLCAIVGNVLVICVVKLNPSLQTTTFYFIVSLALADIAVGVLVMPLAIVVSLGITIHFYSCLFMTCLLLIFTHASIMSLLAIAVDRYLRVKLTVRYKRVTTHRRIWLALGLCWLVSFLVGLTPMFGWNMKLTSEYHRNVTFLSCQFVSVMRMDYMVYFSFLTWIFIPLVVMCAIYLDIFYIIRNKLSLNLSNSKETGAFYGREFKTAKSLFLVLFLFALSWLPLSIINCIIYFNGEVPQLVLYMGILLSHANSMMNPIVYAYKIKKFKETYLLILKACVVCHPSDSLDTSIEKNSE
Description: as §1, §2, §3

isolated rat adipocytes = assay: Antilipolytic effect in isolated rat adipocytes; type: cell-based; conditions: Adipocyte, adenosine deaminase-induced lipolysis (glycerol and free fatty acid release)
Description: E. Antilipolytic Effect in Isolated Rat Adipocytes:
For the preparation of isolated rat adipocytes, epididymal fat pads were obtained from male Sprague-Dawley rats (150-180 g) killed by decapitation. The main fat pad blood vessel was removed with forceps and the pads were cut into small pieces. Digestion was carried out at 37° C. in a shaking water bath by treating 1 g of sliced pad for 20 min with 3 ml of 1 mg/ml collagenase (type I, CLS, Worthington) in 1% BSA, fraction V, in KRH (Krebs-Ringer solution buffered with 25 mM HEPES/KOH, pH 7.4, containing 2.5 mM CaCl2, 2 mM glucose, 1 mM sodium pyruvate, 0.5 units/ml adenosin deaminase and 200 nM phenylisopropyl adenosine). The adipocytes were filtered through nylon mesh of sufficient pore size that no pressure other than gentle teasing with a plastic spatula was necessary for the cells to pass through. After three cycles of centrifugation (500 g, 1 min), aspiration of the infranatant. and resuspension in KRH containing 1% BSA, the cells were suspended in KRH containing 4% defatted BSA. Small aliquots of the final suspension were aspirated into capillary hematocrit tubes and centrifuged for 1 min in a Microhematocrit centrifuge in order to determine what fraction of the suspension consisted of fat cells. Results expressed as activities per unit volume of packed adipocytes (corresponding to equivalent numbers of cells) are based on this centrifugation procedure. Lipolysis was initiated by addition of a 100 μl aliquot of the adipocyte suspension to 700 μl of incubation medium [prewarmed to 37° C. and consisting of KRH, 4% defatted BSA and 1 U/ml adenosine deaminase (type I, Sigma)], with or without addition of 8 μl of a solution of the appropriate test substance in 100% DMSO (at a concentration corresponding to 100 times its concentration in the final mixture). […] Incubations were performed in 5 ml polypropylene vials agitated in a shaking water bath (140 cycles/min, amplitude 4.5 cm) at 37° C. for 20, 40, and 60 min. The incubation was terminated by addition of 200 μl of 50 mM EDTA buffered to pH 7.4 with Tris. For the glycerol determination, the whole mixture was mixed rapidly and homogenized with a ground glass pestle in a 1 ml ground glass homogenizing tube (10 pulses). The homogenate was transferred immediately to a 1.5 ml Eppendorf cup precooled to 4° C., after which the extracts were maintained at 4° C. The homogenate was then centrifuged (10,000 g, 15 min) and the infranatant below the fat cake removed with a glass Pasteur pipette. taking care not to aspirate the membrane pellet. and transferred to another Eppendorf cup. 300 μl aliquots of the infranatant were added to 300 μl volumes of 10% (w/v) HClO4. The precipitate was in each case removed by centrifugation (10,000 g, 2 min) and the supernatant neutralized with 20% (w/v) KOH, followed by addition of 50 μl of 1 M Tris/HCl, pH 7.4, A 50 μl sample was then incubated (5 min, 37° C.) with 1 ml of 0.1 M HEPES/KOH, pH 7.5, containing 2 mM ATP, 0.5 mM 4-aminoantipyrine, 1 mM EDTA, 0.5 U glycerol kinase, 4 U glycerol-3-phosphate oxidase, 2 U peroxidase, 2.7 mM p-chlorophenol, 0.04% Triton X-100 and 2 mM MgSO4.7H2O, and the glycerol content determined from the absorbance at 505 nm. For the determination of free fatty acids, 300 μl aliquots of the incubation mixture were added to 3 ml of chloroform/heptane (1:1 v/v) containing 2% (v/v) methanol. and the liberated free fatty acids determined with copper reagent and bathocuproine. The inhibitory activities of the cyclipostins were calculated from the combined results (glycerol and free fatty acid release) by plotting the log of the dose against the percent response (with the adenosine deaminase-induced lipolysis set at 100%). Data in the linear portion of the log (dose)-percent response curves were analyzed using parallel-line bioassay techniques.

Adenosine A2b receptor = molecular target: T4, Adenosine A2b receptor (Homo sapiens, UniProt P29275); assay: FLIPR intracellular Ca2+ functional assay, recombinant CHO cells (A2b/Gα16); type: cell-based
T4 construct: expressed in transfected cells; host or cells: CHO (Chinese hamster ovary) cells, stably double-transfected
T4 sequence (P29275 1-332): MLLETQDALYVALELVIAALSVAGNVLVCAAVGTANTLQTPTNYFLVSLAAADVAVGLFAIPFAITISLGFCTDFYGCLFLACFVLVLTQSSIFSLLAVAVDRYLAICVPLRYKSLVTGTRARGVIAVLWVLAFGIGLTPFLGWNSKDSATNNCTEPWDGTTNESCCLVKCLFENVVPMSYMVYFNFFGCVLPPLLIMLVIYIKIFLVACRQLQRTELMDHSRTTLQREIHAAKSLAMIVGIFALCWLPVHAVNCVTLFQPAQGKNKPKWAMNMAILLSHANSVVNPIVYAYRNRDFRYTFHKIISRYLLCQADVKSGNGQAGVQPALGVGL
Description: as §1, §2, §3

[1] = system: isolated guinea pig atrium; assay: Effect on the isolated guinea pig atrium (contractile force, heart rate); conditions: for Contractile force: at 30 μM; for Heart rate: at 1–100 μM
Description: D. Effect on the Isolated Guinea Pig Atrium:
Guinea pigs of either sex were killed by a blow on the back of the neck and exsanguinated.
Their heart was taken out and the atria removed. The preparation (atrium) was immediately transferred to Ringer solution (JT 431) which was at a temperature of 32° C. and was bubbled with a mixture of 95% O2 and 5% CO2. The composition of the solution in […] was: NaCl 9.0; KCl 0.42 CaCl2 0.24; NaHCO3 0.2; glucose 1.0. The atrium beats spontaneously with an initial tension of 500 mg. The contractile force and the heart rate was recorded with a computer program and automatically calculated (B-mon and A-mon PC programs. Fa. Jäckel. Hanau. GERMANY). After equilibration, the test compound was added to a final bath concentration. N was 4-6 per concentration.

T2 sequence (P29274 whole entry): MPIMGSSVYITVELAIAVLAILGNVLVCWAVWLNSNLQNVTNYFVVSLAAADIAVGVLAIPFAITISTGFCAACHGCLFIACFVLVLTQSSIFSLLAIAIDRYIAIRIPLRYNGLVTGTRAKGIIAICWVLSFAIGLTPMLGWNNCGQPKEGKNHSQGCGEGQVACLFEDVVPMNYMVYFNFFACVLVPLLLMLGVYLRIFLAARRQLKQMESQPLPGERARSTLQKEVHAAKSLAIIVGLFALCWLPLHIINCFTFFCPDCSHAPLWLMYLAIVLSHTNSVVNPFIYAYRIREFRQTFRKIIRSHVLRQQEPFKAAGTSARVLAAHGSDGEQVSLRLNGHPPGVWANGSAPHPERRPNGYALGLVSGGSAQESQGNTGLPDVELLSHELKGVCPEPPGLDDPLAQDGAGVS

Structure (SMILES)	EC50 (Adenosine A1 receptor)	EC50 values (agonist activity at adenosine receptors) A2A (Adenosine A2a receptor)	EC50 (Adenosine A3 receptor)	IC50 (isolated rat adipocytes)	EC50 values (agonist activity at adenosine receptors) A2B (Adenosine A2b receptor)	melting point	Contractile force [1]	Heart rate [1]	EC50 (Adenosine A2b receptor; read-out: EC50 values (agonist activity at adenosine receptors) A2B)
O[C@@H]1[C@@H](COC(F)(F)F)C[C@@H](n2cnc3c(N[C@H]4CCN(c5ccc(C(F)(F)F)cc5)C4)ncnc32)[C@@H]1O [Example 10, (1R,2S,3R,5R)-3-{6-[1-(4-trifluoromethyl-phenyl-1-yl)-pyrrolidin-3(S)-ylamino]-purin-9-yl}-5-trifluoromethoxymethyl-cyclopentane-1,2-diol]	15.4 µM	Inactive	> 50 µM	0.1 µM	inactive	153 °C	+3% at 30 μM	no effect at 1–100 μM	–
O[C@@H]1[C@@H](CF)C[C@@H](n2cnc3c(N[C@H]4CCN(c5ccc(C(F)(F)F)cc5)C4)ncnc32)[C@@H]1O [Example 7, (1R,2S, 3R, 5S)-3-{6-[1-(4-trifluoromethyl-phenyl-1-yl) -pyrrolidin-3(S)-ylamino]-purin-9-yl}-5-fluoromethyl-cyclopentane-1,2-diol]	1.25 µM	Inactive	> 50 µM	0.005 µM	–	178 °C	−1% at 30 μM	no effect at 1–100 μM	> 30 µM
